Columns and labels:
Format in all cases: biochemical
[1] = biological target: T1, TAZ-TEAD biosensor (FLAG-SmBiT-TAZ / His-LgBiT-TEAD1) (Homo sapiens, UniProt Q9GZV5); assay: TR-FRET dose response (anti-FLAG-Tb / anti-His-D2), disruption of TAZ-TEAD1 interaction; settings: HEK293T lysate, 18 h; protein-protein interaction inhibition
T1 construct: gene WWTR1; FLAG-SmBiT-TAZ aa 13-119 and His-LgBiT-TEAD1 aa 194-411 co-expressed in HEK293T; cell lysate; tags kept; with Transcriptional enhancer factor TEF-1

TAZ = biological target: T2, TAZ (Homo sapiens, UniProt Q9GZV5); assay: cellular thermal shift assay (CETSA) with western blot; settings: 100 μM alexidine, 4 h at 4 °C, HEK293T lysate, heated 25-60 °C; destabilising shift
T2 construct: gene WWTR1; endogenous full-length TAZ in HEK293T freeze-thaw lysate (Methods: endogenous)

[2] = biological target: T3, GST-TAZ / Venus-Flag-TEAD1 (VF-TEAD1) (Homo sapiens, UniProt Q9GZV5); assay: GST pull-down with western blot densitometry; settings: HEK293T lysate, 18 h at 4 °C; protein-protein interaction inhibition
T3 construct: gene WWTR1; with Transcriptional enhancer factor TEF-1
T3 sequence (Q9GZV5 whole entry): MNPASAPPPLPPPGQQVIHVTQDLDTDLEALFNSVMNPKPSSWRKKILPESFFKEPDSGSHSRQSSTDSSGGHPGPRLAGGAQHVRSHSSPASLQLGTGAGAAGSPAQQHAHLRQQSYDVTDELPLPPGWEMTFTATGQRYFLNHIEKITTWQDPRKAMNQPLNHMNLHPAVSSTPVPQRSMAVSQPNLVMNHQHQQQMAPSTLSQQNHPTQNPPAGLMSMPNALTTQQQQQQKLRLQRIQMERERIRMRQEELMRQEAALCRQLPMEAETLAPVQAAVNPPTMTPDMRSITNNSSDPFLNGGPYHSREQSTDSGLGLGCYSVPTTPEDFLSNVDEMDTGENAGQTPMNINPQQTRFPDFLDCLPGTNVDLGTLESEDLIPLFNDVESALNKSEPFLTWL
T3 sequence (P28347 whole entry partner): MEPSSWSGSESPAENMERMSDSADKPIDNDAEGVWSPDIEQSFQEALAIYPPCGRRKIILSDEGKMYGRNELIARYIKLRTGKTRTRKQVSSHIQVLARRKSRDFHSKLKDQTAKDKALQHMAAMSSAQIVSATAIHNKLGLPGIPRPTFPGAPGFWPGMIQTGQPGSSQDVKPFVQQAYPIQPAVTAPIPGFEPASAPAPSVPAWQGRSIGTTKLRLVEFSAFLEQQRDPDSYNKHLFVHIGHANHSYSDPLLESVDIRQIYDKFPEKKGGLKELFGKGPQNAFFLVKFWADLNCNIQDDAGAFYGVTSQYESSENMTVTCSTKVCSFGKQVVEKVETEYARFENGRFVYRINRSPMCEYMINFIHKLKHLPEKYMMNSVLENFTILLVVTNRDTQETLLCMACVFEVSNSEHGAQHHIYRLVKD

T1 sequence (Q9GZV5 13-119): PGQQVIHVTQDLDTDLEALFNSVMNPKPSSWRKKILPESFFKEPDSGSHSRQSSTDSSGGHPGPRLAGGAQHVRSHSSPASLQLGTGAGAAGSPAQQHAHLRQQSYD
T1 sequence (P28347 209-426 partner): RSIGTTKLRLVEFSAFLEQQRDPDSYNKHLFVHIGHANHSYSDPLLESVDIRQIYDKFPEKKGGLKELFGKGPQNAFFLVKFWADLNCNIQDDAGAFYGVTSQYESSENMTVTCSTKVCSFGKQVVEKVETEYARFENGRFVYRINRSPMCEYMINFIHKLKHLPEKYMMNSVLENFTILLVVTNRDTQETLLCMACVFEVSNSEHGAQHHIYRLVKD
T2 sequence (Q9GZV5 whole entry): as the sequence (Q9GZV5 whole entry) above

CCCCC(CC)CNC(=N)NC(=N)NCCCCCCNC(=N)NC(=N)NCC(CC)CCCC (stereo not drawn) [alexidine]
TR-FRET signal [1]: alexidine disrupted TAZ- TEAD PPI in a dose-dependent manner
Tm (TAZ): A reduction in TAZ rather than TEAD stability and melting temperature (Tm) was observed
% PPI signal [2]: inhibition of GST-TAZ and VF-TEAD1 interaction was achieved by alexidine treatment

Reference: PMC12719775, “Alexidine is a TAZ-specific small-molecule inhibitor that suppresses breast cancer invasion and metastasis” (iScience, 2025)
